Experimental findings from patent US20250197368A1 (priority 2020, published 2025) are described below.

One may read the Ki as the equilibrium dissociation constant of an inhibitor or competing ligand from its target.

Test [1] addresses human α3β3γ2 GABAARs (benzodiazepine site) (Homo sapiens (Human), UniProt P18507+P34903). Description: In vitro radioligand binding assay ([3H]Ro15-1788 displacement), α3-GABAAR Ki. To be noted: L(tk-) cell membranes, 4 nM [3H]Ro15-1788. The method, then: The affinity (Ki) of compounds for the benzodiazepine site of human recombinant GABAARs was measured by their ability to inhibit the binding of the selective benzodiazepine antagonist [^3H]Ro15-1788 ([^3H] flumazenil).
Mouse L(tk^−) cells stably expressing human α1β3γ2, α2β3γ2, α3β3γ2, α5β3γ2 GABAARs were generated by transfection of the individual subunits in the dexamethasone-inducible expression vector pMSGneo in mouse L(tk^−) cells (Hadingham et al., 1993, Mol. Pharmacol. 43:970-975 and 1993, Mol. Pharmacol. 44:1211-1218).
L(tk^−) cells stably expressing human α1β3γ2, α2β3γ2, α3β3γ2, α5β3γ2 GABAARs were maintained in DMEM F12 medium supplemented with 10% Foetal Bovine Serum, 1% Penicillin/Streptomycin and 1 mg/mL Geneticin G418 in an incubator at 37° C. with a humidified atmosphere with 5% CO2. Dexamethasone was added to the culture medium to induce GABAAR expression.
L(tk−) cells were harvested and membranes were prepared for each receptor combination in either TE buffer (10 mM Tris·CI/0.1 mM EDTA, pH 7.5) or phosphate buffer (K2PO4 10 mM, pH 7.0) (Hadingham et al. (1992) Proc. Natl. Acad. Sci. USA; 89 (14): 6378-82). Protein concentration, receptor expression and the Kd of [^3H]Ro15-1788 were determined before Ki value of the compounds were evaluated. For Kd evaluation, saturation binding curves were obtained by incubating membrane with various concentrations of [^3H]Ro15-1788 (82.5 Ci/mM), with nonspecific binding measured in the presence of 1-3 μM TP003.
For Ki evaluation, cell membranes were incubated with 4 nM [^3H]Ro15-1788 along with a range of concentrations of test compound. Nonspecific binding was determined using 1-3 μM TP003. All incubations were performed for 1 hour at 4° C. in assay buffer. The total assay volume was 0.5 mL, containing 40 μg/well α1β3γ2, 30 μg/well α2β3γ2, 40 μg/well α3β3γ2 and 30 μg/well for α5β3γ2 of membrane protein. Incubations were terminated by filtration and washing with ice cold Tris-HCl buffer (50 mM, pH=7.4) over Whatman GF/B filters and the radioactivity of the filters was measured using liquid scintillation counting.
The % inhibition of [^3H]Ro15-1788 binding was plotted as a function of compound concentration and the IC50 calculated. From the IC50, the affinity (Ki) was calculated using the method of Cheng and Prusoff using the Kd values obtained for [^3H]Ro15-1788.

Test [2] relates to human α2β3γ2 GABAARs. Put plainly: In vitro electrophysiological recording assay (automated patch-clamp), α2-GABAAR relative efficacy. The class given is cell-based. To be noted: % efficacy normalised to diazepam; GABA EC10-20; concentration generally >= 100 times Ki. In a few lines:
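Relative efficacy is % enhancement of the leak-subtracted GABA EC10-20 peak current, divided by the separately measured diazepam value; compound generally tested at ≥100× Ki after ≥1 min pre-application. Recordings at room temperature, human receptors stably expressed in L(tk^−) (QPatch, −65 mV) or HEK293 (SyncroPatch, −80 mV) cells.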
In general terms: The patch-clamp technique gives a direct electrical read-out from membranes.

Test [3] has as its target human α2β3γ2 GABAARs (benzodiazepine site) (Homo sapiens (Human), UniProt P18507+P47869). Put plainly: In vitro radioligand binding assay ([3H]Ro15-1788 displacement), α2-GABAAR Ki. In a few lines:
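Ki derived via Cheng-Prusoff from IC50 for displacement of 4 nM [3H]Ro15-1788 (Kd from saturation binding), with 1-3 μM TP003 defining nonspecific binding. Incubation lasted 1 h at 4° C on membranes of induced L(tk−) cells stably transfected with the human subunits; detection by filtration and scintillation counting.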

In test [4] the test system is human α3β3γ2 GABAARs. Description: In vitro electrophysiological recording assay (automated patch-clamp), α3-GABAAR relative efficacy. The test is classed as cell-based. To be noted: % efficacy normalised to diazepam; GABA EC10-20; concentration generally >= 100 times Ki. The protocol:
The efficacy of modulators was evaluated using the automated patch-clamp platforms QPatch16 (Sophion, Copenhagen, Denmark) or SyncroPatch 384PE (Nanion, Germany).
For QPatch electrophysiology testing L(tk^−) cells stably expressing human α1β3γ2, α2β3γ2, α3β3γ2, α5β3γ2 GABAARs were used. HEK293 cells stably expressing human α1β3γ2L, α2β3γ2L, α3β3γ2L and α5β3γ2L GABAARs were used for the SyncroPatch 384PE experiments.
All experiments were carried out at room temperature (20-22° C.) using a standard whole cell procedure and physiological solutions. Gigaseals were formed upon execution of a combined suction/voltage protocol with subsequent increased suction leading to the whole-cell configuration.
The currents recorded were acquired at either 1 KHz or 2 KHz and filtered using a Bessel filter. Whole-cell currents were measured at a holding potential of-65 mV (QPatch) or −80 mV (SyncroPatch).
For QPatch experiments, the extracellular solution contained of: 145 mM NaCl, 4 mM KCl, 1 mM MgCl2, 2 mM CaCl2), 10 mM HEPES, 10 mM D-glucose (pH 7.4), and the intracellular solution consisted of: 96 mM KCl, 28 mM CsCl, 25 mM KOH, 4.3 mM CaCl2), 1.4 mM MgCl2, 10 mM EGTA, 10 mM HEPES, 3 mM MgATP (pH 7.2). The osmolarities of the extracellular and intracellular solutions were 305 and 295 mOsm respectively.
For SyncroPatch experiments, the extracellular recording solution contained: 140 mM NaCl, 4 mM KCl, 2 mM CaCl2), 1 mM MgCl2, 10 mM HEPES, 5 mM glucose (pH 7.4 with NaOH and osmolarity of c. 300-310 mOsm). The intracellular recording solution consisted of: 90 mM KCl, 50 mM KF, 1.5 mM MgCl2, 11.1 mM EGTA and 10 mM HEPES (pH 7.2 with KOH and osmolarity of c. 300 mOsm). 2 mM of NaATP was added to the intracellular solution on the day of testing.
The effects of modulators were evaluated in the presence of a submaximal GABA concentration, giving typically less than 30% activation of the response elicited by a saturating GABA concentration. To check and ensure baseline current stability before compound addition, two to five consecutive applications of GABA EC10-20 separated by wash steps were performed before compound addition. The test compound was applied 1 min at least prior to co-application with GABA EC10-20. Following a further wash step, a saturating concentration of GABA was applied at the end of each recording, allowing the accurate evaluation for each cell of the percentage baseline activation elicited by the submaximal GABA applied.
The compounds were first dissolved in DMSO as a 10 mM stock and then further diluted to the testing concentrations so that the final DMSO concentration in the extracellular recording solution was 0.1% (QPatch) or 0.2% (SyncroPatch).
The % efficacy of modulators was determined from the GABA elicited currents recorded in the presence and absence of the test compound, using the formula:
[((compound peak current−leak)−(GABA peak current-leak))/(GABA peak current−leak)]*100,
where ‘leak’ is the leak baseline current at the holding potential, ‘compound peak current’ is the current elicited by co-application of compound and GABA, and ‘GABA peak current’ is the current elicited by GABA alone at the last GABA application before compound addition. The results were presented as ‘relative efficacy’ for each compound generally at a concentration equal or higher than 100 times their determined Ki. The relative efficacy of a compound was calculated by normalising its % efficacy to the corresponding % efficacy of diazepam that was separately determined.

Chain of human α2β3γ2 GABAARs (benzodiazepine site) (P47869 29-451): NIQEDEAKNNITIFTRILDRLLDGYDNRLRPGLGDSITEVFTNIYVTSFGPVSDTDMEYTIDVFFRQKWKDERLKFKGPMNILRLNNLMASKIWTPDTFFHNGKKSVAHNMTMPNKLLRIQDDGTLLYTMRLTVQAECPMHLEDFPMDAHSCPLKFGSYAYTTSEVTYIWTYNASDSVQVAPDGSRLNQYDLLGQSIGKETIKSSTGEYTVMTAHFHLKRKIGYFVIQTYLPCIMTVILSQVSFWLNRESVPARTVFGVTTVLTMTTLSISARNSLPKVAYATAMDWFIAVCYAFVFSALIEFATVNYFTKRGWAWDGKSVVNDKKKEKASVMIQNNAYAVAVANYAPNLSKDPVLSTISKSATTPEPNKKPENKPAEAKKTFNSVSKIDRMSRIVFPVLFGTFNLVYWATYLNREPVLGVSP
Chain of human α2β3γ2 GABAARs (benzodiazepine site) (P28472 26-473 partner): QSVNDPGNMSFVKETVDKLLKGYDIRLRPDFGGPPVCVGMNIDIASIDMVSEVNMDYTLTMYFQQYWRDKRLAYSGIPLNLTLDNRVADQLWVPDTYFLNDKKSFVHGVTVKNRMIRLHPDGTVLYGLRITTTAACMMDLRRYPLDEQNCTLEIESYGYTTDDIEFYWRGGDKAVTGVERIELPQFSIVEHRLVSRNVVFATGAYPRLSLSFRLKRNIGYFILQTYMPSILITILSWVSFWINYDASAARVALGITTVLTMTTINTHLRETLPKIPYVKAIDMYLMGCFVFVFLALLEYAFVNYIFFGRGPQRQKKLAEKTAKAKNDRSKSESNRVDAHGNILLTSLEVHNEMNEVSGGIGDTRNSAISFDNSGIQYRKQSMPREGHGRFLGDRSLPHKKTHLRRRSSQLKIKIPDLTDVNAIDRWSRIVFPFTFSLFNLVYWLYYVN
Chain of human α2β3γ2 GABAARs (benzodiazepine site) (P18507 40-475): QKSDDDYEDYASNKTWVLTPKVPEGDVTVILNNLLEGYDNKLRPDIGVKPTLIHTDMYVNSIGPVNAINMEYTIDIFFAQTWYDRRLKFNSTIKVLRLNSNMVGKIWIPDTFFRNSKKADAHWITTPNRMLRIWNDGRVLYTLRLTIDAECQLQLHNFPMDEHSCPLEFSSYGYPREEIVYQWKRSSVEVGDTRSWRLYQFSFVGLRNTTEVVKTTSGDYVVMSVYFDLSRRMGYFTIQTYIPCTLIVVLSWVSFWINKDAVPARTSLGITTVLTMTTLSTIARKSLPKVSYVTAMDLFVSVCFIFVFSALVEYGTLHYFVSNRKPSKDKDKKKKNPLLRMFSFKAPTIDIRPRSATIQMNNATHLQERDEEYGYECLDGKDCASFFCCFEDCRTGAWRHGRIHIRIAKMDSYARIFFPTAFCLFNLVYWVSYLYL

Regarding `CCCNC(=O)c1c(N)c2cccc(-c3nc(CN4CCN(C)CC4)ccc3F)c2[nH]c1=O` [Example 138, 4-Amino-8-(3-fluoro-6-((4-methylpiperazin-1-yl)methyl)pyridin-2-yl)-2-oxo-N-propyl-1,2-dihydroquinoline-3-carboxamide], the results for the Ki in test [1] and in test [3] were 4.99 nM and 1.87 nM, respectively. In test [2], the “α2-GABAAR Relative Efficacy (vs. Diazepam)” value (shortened to “α2-GABAAR Relative Efficacy”) turned out to be 0.17. In addition, in test [4], the “α3-GABAAR Relative Efficacy (vs. Diazepam)” value (shortened to “α3-GABAAR Relative Efficacy”) came out at 0.42.

As to `CCCNC(=O)c1c(N)c2cccc(-c3nc(C)[nH]c3C)c2[nH]c1=O` [Example 52, 4-Amino-8-(2,5-dimethyl-1H-imidazol-4-yl)-2-oxo-N-propyl-1H-quinoline-3-carboxamide], the “α2-GABAAR Relative Efficacy” value in test [2] is listed as 0.53. Moreover, the Ki in test [3] is 6.61 nM. Further, the “α3-GABAAR Relative Efficacy” value in test [4] amounted to 0.41.

As to `CCCNC(=O)c1c(N)c2cccc(-c3cc(OCc4ccccn4)ccc3F)c2[nH]c1=O` [Example 85, 4-Amino-8-[2-fluoro-5-(2-pyridylmethoxy)phenyl]-2-oxo-N-propyl-1H-quinoline-3-carboxamide], the values for the Ki in test [1] and in test [3] were 0.7 nM and 0.3 nM, respectively. The “α2-GABAAR Relative Efficacy” value in test [2] is on record as 0.32. Besides, in test [4], the “α3-GABAAR Relative Efficacy” value is given as 0.42.

Turning to `COc1ccncc1-c1cccc2c(N)c(C(=O)NCCC(F)(F)F)c(=O)[nH]c12` [Example 69, 4-Amino-8-(4-methoxypyridin-3-yl)-2-oxo-N-(3,3,3-trifluoropropyl)-1,2-dihydroquinoline-3-carboxamide], the inhibition constant (Ki) in test [1] came to 60.5 nM; in test [3], 26.5 nM. In addition, in test [2], the “α2-GABAAR Relative Efficacy” value is 0.6. In test [4], the “α3-GABAAR Relative Efficacy” value was 0.59.

In the case of `CCCNC(=O)c1c(N)c2cccc(-c3cc(CN4CCC5(CCN(C)CC5)C4)ccc3F)c2[nH]c1=O` [Example 143, 4-Amino-8-(2-fluoro-5-((8-methyl-2,8-diazaspiro[4.5]decan-2-yl)methyl)phenyl)-2-oxo-N-propyl-1,2-dihydroquinoline-3-carboxamide], the Ki in test [1] came out at 10.1 nM; in test [3], 1.8 nM. The “α2-GABAAR Relative Efficacy” value in test [2] amounted to 0.32. For the same compound, in test [4], the “α3-GABAAR Relative Efficacy” value was 0.11.

Regarding `CCCNC(=O)c1c(N)c2cccc(-c3cc(CN4CCN(C)CC4)ccc3F)c2[nH]c1=O` [Example 137, 4-Amino-8-[2-fluoro-5-[(4-methylpiperazin-1-yl)methyl]phenyl]-2-oxo-N-propyl-1H-quinoline-3-carboxamide], the Ki in test [1] turned out to be 8.07 nM; in test [3], 3 nM. The “α2-GABAAR Relative Efficacy” value in test [2] is given as 0.42. Besides, the “α3-GABAAR Relative Efficacy” value in test [4] was found to be 0.53.

`CCCNC(=O)c1c(N)c2cccc(-c3cc(OC)ncc3F)c2[nH]c1=O` [Example 34, 4-Amino-8-(5-fluoro-2-methoxy-4-pyridyl)-2-oxo-N-propyl-1H-quinoline-3-carboxamide]: the Ki came to 1.58 nM in test [1] and 0.68 nM in test [3]. Moreover, the “α2-GABAAR Relative Efficacy” value in test [2] turned out to be 0.49. Also, in test [4], the “α3-GABAAR Relative Efficacy” value was determined as 0.47.

Regarding `CCCNC(=O)c1c(N)c2cccc(-c3cc(CN4CCC5(CCN(C)C5)C4)ccc3F)c2[nH]c1=O` (stereo not drawn) [Example 142, 4-Amino-8-(2-fluoro-5-((7-methyl-2,7-diazaspiro[4.4]nonan-2-yl)methyl)phenyl)-2-oxo-N-propyl-1,2-dihydroquinoline-3-carboxamide], the Ki in test [1] was determined as 6.35 nM; in test [3], 3.6 nM. The “α2-GABAAR Relative Efficacy” value in test [2] is 0.24. The “α3-GABAAR Relative Efficacy” value in test [4] was 0.27.

In the case of `CCCNC(=O)c1c(N)c2cccc(-c3cccc(OCc4cccnc4)n3)c2[nH]c1=O` [Example 111, 4-Amino-2-oxo-N-propyl-8-(6-(pyridin-3-ylmethoxy)pyridin-2-yl)-1,2-dihydroquinoline-3-carboxamide], the Ki in test [1] was 0.41 nM; in test [3] it was 0.23 nM. In addition, in test [2], the “α2-GABAAR Relative Efficacy” value came out at 0.27. Further, the “α3-GABAAR Relative Efficacy” value in test [4] was found to be 0.47.

Regarding `CCCNC(=O)c1c(N)c2cccc(-c3cncc(CO)c3)c2[nH]c1=O` [Example 25, 4-Amino-8-[5-(hydroxymethyl)-3-pyridyl]-2-oxo-N-propyl-1H-quinoline-3-carboxamide], the “α2-GABAAR Relative Efficacy” value in test [2] was found to be 0.15. Besides, the inhibition constant Ki in test [3] worked out at 3.4 nM. In addition, the “α3-GABAAR Relative Efficacy” value in test [4] is 0.10.

On to `CCCNC(=O)c1c(N)c2cccc(-c3cc(OCc4ccc(F)cn4)ccc3F)c2[nH]c1=O` [Example 92, 4-Amino-8-[2-fluoro-5-[(5-fluoro-2-pyridyl)methoxy]phenyl]-2-oxo-N-propyl-1H-quinoline-3-carboxamide], for which the inhibition constant Ki is 0.81 nM in test [1] and 0.48 nM in test [3]. In addition, the “α2-GABAAR Relative Efficacy” value in test [2] is listed as 0.21. Further, in test [4], the “α3-GABAAR Relative Efficacy” value is 0.26.
